Tests used:
human MER (528-end) = target: T1, human MER (528-end) (Homo sapiens, UniProt Q12866); assay: HTRF kinase activity biochemical assay, MER; conditions: 10 μM ATP, 30 minutes pre-incubation; read-out: HTRF MERTK IC50
T1 construct: human MER (528-end); purchased Camnabio, Japan
T1 sequence (Q12866 528-999 limits assumed): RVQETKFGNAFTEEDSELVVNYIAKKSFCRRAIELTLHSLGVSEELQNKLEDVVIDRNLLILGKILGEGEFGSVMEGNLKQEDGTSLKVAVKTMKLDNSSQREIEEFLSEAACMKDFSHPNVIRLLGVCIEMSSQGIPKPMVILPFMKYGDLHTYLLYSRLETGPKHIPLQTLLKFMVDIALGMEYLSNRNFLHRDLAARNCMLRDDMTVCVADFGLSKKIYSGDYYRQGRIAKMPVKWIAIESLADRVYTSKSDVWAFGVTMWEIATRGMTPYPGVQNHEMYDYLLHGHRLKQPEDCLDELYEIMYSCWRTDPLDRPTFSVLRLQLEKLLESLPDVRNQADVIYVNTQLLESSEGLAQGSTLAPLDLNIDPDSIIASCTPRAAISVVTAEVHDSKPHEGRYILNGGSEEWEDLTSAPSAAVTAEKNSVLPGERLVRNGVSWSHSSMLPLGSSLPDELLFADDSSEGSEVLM
Description: (§1) For the SAR (structure-activity relationship) and compound screening, HTRF (Homogeneous Time Resolved Fluorescence) kinase activity assay was employed for all MER, AXL and TYRO3 kinases using Cisbio HTRF® KinEASE™-TK kit (Cisbio, USA). The kit included biotin-labeled TK substrate, streptavidin-XL665, Eu3+-cryptate-labeled TK antibody and HTRF® Detection buffer. There are two main steps in the kinase assay: kinase reaction and detection of phosphorylated substrate. The reaction was carried out in white low volume 384-well plate (Corning, USA) with 25 nL compound in dimethyl sulfoxide in each well. […] After 1 hour incubation at room temperature, the fluorescence intensity was measured with Envision[…] plate reader (PerkinElmer, USA). Upon excitation at 340 nm by UV, the energy from Eu3+ donor of the antibody is transferred to the FRET acceptor XL665, and […] emits light at 665 nm.

human AXL (473-end) = target: T2, human AXL (473-end) (Homo sapiens, UniProt P30530); assay: HTRF kinase activity biochemical assay, AXL; conditions: 10 μM ATP, 30 minutes pre-incubation
T2 construct: human AXL (473-end); purchased SignalChem, Canada
T2 sequence (P30530 473-894 limits assumed): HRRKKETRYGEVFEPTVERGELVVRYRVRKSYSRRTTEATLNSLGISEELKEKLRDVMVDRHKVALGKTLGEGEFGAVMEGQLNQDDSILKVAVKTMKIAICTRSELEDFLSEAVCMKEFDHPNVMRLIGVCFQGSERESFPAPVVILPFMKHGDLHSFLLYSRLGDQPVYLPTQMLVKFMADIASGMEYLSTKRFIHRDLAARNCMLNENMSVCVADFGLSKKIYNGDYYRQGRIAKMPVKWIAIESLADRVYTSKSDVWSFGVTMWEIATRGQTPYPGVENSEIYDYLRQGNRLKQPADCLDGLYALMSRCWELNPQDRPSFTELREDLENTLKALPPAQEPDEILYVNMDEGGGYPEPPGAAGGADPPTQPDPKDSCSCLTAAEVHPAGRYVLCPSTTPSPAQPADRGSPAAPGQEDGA
Description: as §1

human TYRO3 (455-end) = target: T3, human TYRO3 (455-end) (Homo sapiens, UniProt Q06418); assay: HTRF kinase activity biochemical assay, TYRO3; conditions: 10 μM ATP, 30 minutes pre-incubation; read-out: HTRF TYRO IC50
T3 construct: TYRO3 (455-end); purchased SignalChem, Canada
T3 sequence (Q06418 455-890 limits assumed): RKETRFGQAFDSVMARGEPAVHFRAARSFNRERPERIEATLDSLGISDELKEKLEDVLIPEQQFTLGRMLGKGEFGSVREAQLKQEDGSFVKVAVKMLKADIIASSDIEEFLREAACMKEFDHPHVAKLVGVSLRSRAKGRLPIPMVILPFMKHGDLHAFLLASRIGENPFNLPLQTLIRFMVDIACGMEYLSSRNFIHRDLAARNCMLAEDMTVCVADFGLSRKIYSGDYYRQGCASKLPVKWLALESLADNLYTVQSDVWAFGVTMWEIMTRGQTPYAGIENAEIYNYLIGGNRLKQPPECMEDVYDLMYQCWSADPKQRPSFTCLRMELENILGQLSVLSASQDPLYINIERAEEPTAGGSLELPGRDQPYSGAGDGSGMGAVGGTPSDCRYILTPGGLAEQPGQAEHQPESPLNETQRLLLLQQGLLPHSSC
Description: as §1

Compound	IC50 (human MER (528-end))	IC50 (human AXL (473-end))	IC50 (human TYRO3 (455-end))
Cn1ccc(-c2cc(C(=O)N[C@H]3CCC[C@@H]3OCc3ccc(-c4ccc5c(c4)CC(F)(F)C5N4CCN(CCO)CC4)cc3)cnc2N)cc1=O (stereo partly drawn) [Example 87, amino-N-{(1S,2S)-2-[(4-{2,2-difluoro-1-[4-(2-hydroxyethyl)piperazin-1-yl]-2,3-dihydro-1H-inden-5-yl}phenyl)methoxy]cyclopentyl}-1′-methyl-2′-oxo-1′,2′-dihydro[3,4′-bipyridine]-5-carboxamide]	< 10 nM	< 10 nM	100 to 1000 nM
Cn1cc(-c2cnc(N)c(C(=O)N[C@H]3CCC[C@@H]3OCc3ccc(-c4cnc5c(c4)C(C)(C)CCN5C4CCN(CCO)CC4)cc3)c2)cn1 [Example 158, 2-amino-N-{(1S,2S)-2-[(4-{8-[1-(2-hydroxyethyl)piperidin-4-yl]-5,5-dimethyl-5,6,7,8-tetrahydro-1,8-naphthyridin-3-yl}phenyl)methoxy]cyclopentyl}-5-(1-methyl-1H-pyrazol-4-yl)pyridine-3-carboxamide]	< 10 nM	< 10 nM	10 to 100 nM
CC1(C)C[C@@H](N2CCN(CCO)CC2)c2ccc(-c3ccc(CO[C@H]4CCC[C@@H]4NC(=O)c4cc(-c5ccc(F)nc5)cnc4N)cc3)cc21 [Example 97, 6-amino-6′-fluoro-N-{(1S,2S)-2-[(4-{(1R)-1-[4-(2-hydroxyethyl)piperazin-1-yl]-3,3-dimethyl-2,3-dihydro-1H-inden-5-yl}phenyl)methoxy]cyclopentyl}[3,3′-bipyridine]-5-carboxamide]	100 to 1000 nM	100 to 1000 nM	> 1000 nM
Cn1cc(-c2cnc(N)c(C(=O)N[C@H]3CCC[C@@H]3OCc3ccc(-c4ccc5c(c4)CCCC5N4CCNCC4)cc3)c2)cn1 (stereo partly drawn) [Example 122, 2-amino-5-(1-methyl-1H-pyrazol-4-yl)-N-[(1S,2S)-2-({4-[5-(piperazin-1-yl)-5,6,7,8-tetrahydronaphthalen-2-yl]phenyl}methoxy)cyclopentyl]pyridine-3-carboxamide]	< 10 nM	< 10 nM	10 to 100 nM
Cn1cc(-c2cnc(N)c(C(=O)N[C@H]3COC[C@@H]3OCc3ccc(-c4ccc5c(c4)C(C)(C)CN5C4CCN(CCO)CC4)cc3)n2)cn1 [Example 71, 3-amino-N-{(3S,4R)-4-[(4-{1-[1-(2-hydroxyethyl)piperidin-4-yl]-3,3-dimethyl-2,3-dihydro-1H-indol-5-yl}phenyl)methoxy]oxolan-3-yl}-6-(1-methyl-1H-pyrazol-4-yl)pyrazine-2-carboxamide]	< 10 nM	10 to 100 nM	100 to 1000 nM
Cn1cc(-c2cnc(N)c(C(=O)N[C@H]3CCC[C@@H]3OCc3ccc(-c4ccc5c(c4)CC(C)(C)C5N4CCN(CCO)CC4)cc3)c2)cn1 (stereo partly drawn) [Example 105, 2-amino-N-{(1S,2S)-2-[(4-{1-[4-(2-hydroxyethyl)piperazin-1-yl]-2,2-dimethyl-2,3-dihydro-1H-inden-5-yl}phenyl)methoxy]cyclopentyl}-5-(1-methyl-1H-pyrazol-4-yl)pyridine-3-carboxamide]	< 10 nM	< 10 nM	100 to 1000 nM
COc1ccnc(N)c1C(=O)N[C@H]1CCC[C@@H]1OCc1ccc(-c2ccc3c(c2)C(C)(C)CC3N2CCN(CCO)CC2)cc1 (stereo partly drawn) [Example 136, 2-amino-N-{(1S,2S)-2-[(4-{1-[4-(2-hydroxyethyl)piperazin-1-yl]-3,3-dimethyl-2,3-dihydro-1H-inden-5-yl}phenyl)methoxy]cyclopentyl}-4-methoxypyridine-3-carboxamide]	< 10 nM	< 10 nM	100 to 1000 nM
Cn1cc(-c2cnc(N)c(C(=O)N[C@H]3COC[C@@H]3OCc3ccc(-c4ccc5c(ccn5C5CCN(CCO)CC5)c4)cc3)c2)cn1 [Example 14, 2-amino-N-{(3S,4R)-4-[(4-{1-[1-(2-hydroxyethyl)piperidin-4-yl]-1H-indol-5-yl}phenyl)methoxy]oxolan-3-yl}-5-(1-methyl-1H-pyrazol-4-yl)pyridine-3-carboxamide]	< 10 nM	10 to 100 nM	> 1000 nM
CN1CC(C(=O)NC2Cc3ccc(-c4ccc(CO[C@H]5CCC[C@@H]5NC(=O)c5cc(-c6cnn(C)c6)cnc5N)cc4)cc3C2)C1 (stereo partly drawn) [Example 11, 2-amino-N-{(1S,2S)-2-[(4-{2-[(1-methylazetidine-3-carbonyl)amino]-2,3-dihydro-1H-inden-5-yl}phenyl)methoxy]cyclopentyl}-5-(1-methyl-1H-pyrazol-4-yl)pyridine-3-carboxamide]	< 10 nM	10 to 100 nM	> 1000 nM
Cn1cc(-c2cnc(N)c(C(=O)N[C@H]3CCC[C@@H]3OCc3ccc(-c4ccc5c(c4)CC(F)(F)C5N4CCN(CCO)CC4)cc3)c2)cn1 (stereo partly drawn) [Example 50, 2-amino-N-{(1S,2S)-2-[(4-{2,2-difluoro-1-[4-(2-hydroxyethyl)piperazin-1-yl]-2,3-dihydro-1H-inden-5-yl}phenyl)methoxy]cyclopentyl}-5-(1-methyl-1H-pyrazol-4-yl)pyridine-3-carboxamide]	< 10 nM	< 10 nM	100 to 1000 nM
Cn1ccc(-c2cnc(N)c(C(=O)N[C@H]3CCC[C@@H]3OCc3ccc(-c4ccc5c(c4)CC[C@@H]5N4CCN(CCO)CC4)cc3)c2)cc1=O [Example 92, 6-amino-N-{(1S,2S)-2-[(4-{(1S)-1-[4-(2-hydroxyethyl)piperazin-1-yl]-2,3-dihydro-1H-inden-5-yl}phenyl)methoxy]cyclopentyl}-1′-methyl-2′-oxo-1′,2′-dihydro[3,4′-bipyridine]-5-carboxamide]	< 10 nM	< 10 nM	10 to 100 nM
Nc1ncc(C(F)(F)F)cc1C(=O)N[C@H]1CCC[C@@H]1OCc1ccc(-c2ccc3c(c2)CCCC3N2CCN(CCO)CC2)cc1 (stereo partly drawn) [Example 124, 2-amino-N-{(1S,2S)-2-[(4-{5-[4-(2-hydroxyethyl)piperazin-1-yl]-5,6,7,8-tetrahydronaphthalen-2-yl}phenyl)methoxy]cyclopentyl}-5-(trifluoromethyl)pyridine-3-carboxamide]	< 10 nM	< 10 nM	100 to 1000 nM
Cc1c(-c2cnc(N)c(C(=O)N[C@H]3COC[C@@H]3OCc3ccc(-c4ccc5c(c4)C(C)(C)CN5C4CCN(CCO)CC4)cc3)c2)cnn1C [Example 47, 2-amino-5-(1,5-dimethyl-1H-pyrazol-4-yl)-N-{(3S,4R)-4-[(4-{1-[1-(2-hydroxyethyl)piperidin-4-yl]-3,3-dimethyl-2,3-dihydro-1H-indol-5-yl}phenyl)methoxy]oxolan-3-yl}pyridine-3-carboxamide]	< 10 nM	< 10 nM	10 to 100 nM
Nc1ncc(-c2ccc(F)nc2)cc1C(=O)N[C@H]1COC[C@@H]1OCc1ccc(-c2ccc3c(ccn3C3CCN(CCO)CC3)c2)cc1 [Example 25, 6-amino-6′-fluoro-N-{(3S,4R)-4-[(4-{1-[1-(2-hydroxyethyl)piperidin-4-yl]-1H-indol-5-yl}phenyl)methoxy]oxolan-3-yl}[3,3′-bipyridine]-5-carboxamide]	< 10 nM	10 to 100 nM	> 1000 nM

Source: patent publication US20260146035A1, “FUSED BICYCLIC COMPOUNDS AND THEIR USE AS MER AND AXL INHIBITORS” (DONG-A ST CO., LTD., priority 2022, published 2026)
